The text below walks through data of patent publication US20090042725A1, “Fungicidal Mixtures Based on 3,5-Disubstituted N-Biphenyl-Pyrazolcarboxamides” (BASF Aktiengesellschaft, priority 2005, published 2009).

The test system of series [1] is Alternaria solani. The series is described as follows: Activity against early blight on tomatoes caused by Alternaria solani. The series is classed as in vivo. To be noted: tomato plants, sprayed 1 day before infection, rated after 5 days, efficacy in % of untreated control (90% infection), read-out: Observed activity (% infection); for inhibition at 63 µg/mL: 63 mg/l. The protocol:
(§1) The active compounds, separately or jointly, were prepared as a stock solution comprising 25 mg of active compound which was made up to 10 ml using a mixture of acetone and/or dimethyl sulfoxide and the emulsifier Uniperol® EL (wetting agent having an emulsifying and dispersing action based on ethoxylated alkylphenols) in a ratio by volume of solvent/emulsifier of 99:1. The mixture was then made up to 100 ml with water. This stock solution was diluted with the solvent/emulsifier/water mixture described to give the concentration of active compound stated below.
(§2) Alternatively, the active compounds epoxiconazole and pyraclostrobin were used as a commercial formulation and diluted with water to the stated active compound concentrations.
(§3) The visually determined percentages of infected leaf areas were converted into efficacies in % of the untreated control.
(§4) The efficacy (E) is calculated as follows using Abbot's formula: […]
(§5) α corresponds to the fungicidal infection of the treated plants in % and β corresponds to the fungicidal infection of the untreated (control) plants in %
(§6) An efficacy of 0 means that the infection level of the treated plants corresponds to that of the untreated control plants; an efficacy of 100 means that the treated plants were not infected.
(§7) The expected efficacies of active compound mixtures were determined using Colby's formula [R. S. Colby, “Calculating synergistic and antagonistic responses of herbicide combinations”, Weeds 15, 20-22 (1967)] and compared with the observed efficacies. […]
Leaves of potted tomato plants were sprayed to runoff point with an aqueous suspension having the concentration of active compounds stated below. […] After 5 days, the disease on the untreated, but infected control plants had developed to such an extent that the infection could be determined visually in %.

For series [2], the system named is Erysiphe [syn. Blumeria] graminis forma specialis. tritici. The series is described as follows: Activity against mildew of wheat caused by Erysiphe [syn. Blumeria] graminis forma specialis. tritici. The conditions noted are these: wheat seedlings, sprayed 24 hours before dusting with spores, 1 mg/l, rated after 7 days; efficacy in % of untreated control (90% infection); read-out: Observed activity (% infection). The format is in vivo. Here is the method: The active compounds, separately or jointly, were prepared as a stock solution comprising 25 mg of active compound which was made up to 10 ml using a mixture of acetone and/or dimethyl sulfoxide and the emulsifier Uniperol® EL (wetting agent having an emulsifying and dispersing action based on ethoxylated alkylphenols) in a ratio by volume of solvent/emulsifier of 99:1. The mixture was then made up to 100 ml with water. This stock solution was diluted with the solvent/emulsifier/water mixture described to give the concentration of active compound stated below. […]
as §3, §4, §7
Leaves of potted wheat seedlings were sprayed to runoff point with an aqueous suspension having the active compound concentration stated below. […] After 7 days, the extent of the mildew development was determined visually in % infection of the entire leaf area.

Series [3] relates to Puccinia recondite. The series is described as follows: Protective activity against Puccinia recondite on wheat (brown rust of wheat). To be noted: wheat seedlings cultivar Kanzler, sprayed 1 day before inoculation, efficacy in % of untreated control (90% infection), read-out: Observed activity (% infection); for inhibition at 1 µg/mL: 1 mg/l; for inhibition at 4 µg/mL: 4 mg/l. The format is in vivo. The protocol:
as §1, §2, §3, §4, §5, §6
The expected efficacies of active compound mixtures were determined using Colby's formula [R. S. Colby, “Calculating synergistic and antagonistic responses of herbicide combinations”, Weeds 15, 20-22 (1967)] and compared with the observed efficacies.
E=x+y−x·y/100 Colby's formula • E expected efficacy, expressed in % of the untreated control, when using the mixture of the active compounds A and B at the concentrations a and b; • x efficacy, expressed in % of the untreated control, when using the active compound A at the concentration a; • y efficacy, expressed in % of the untreated control, when using the active compound B at the concentration b;
Leaves of potted wheat seedlings of the cultivar “Kanzler” were sprayed to runoff point with an aqueous suspension having the concentration of active compound stated below. The next day the treated plants were inoculated with a spore suspension of brown rust of wheat (Puccinia recondite). The plants were then placed in a chamber at high atmospheric humidity (90 to 95%) at 20 to 22° C. for 24 hours. During this time, the spores germinated and the germ tubes penetrated into the leaf tissue. The next day, the test plants were returned to the greenhouse and cultivated at temperatures between 20 and 22° C. and 65 to 70% relative atmospheric humidity for a further 7 days. The extent of the rust fungus development on the leaves was then determined visually.

Series [4] relates to Phakopsora pachyrhizi. Briefly: Curative activity against soybean rust caused by Phakopsora pachyrhizi. The format is in vivo. To be noted: soybean seedlings cultivar Oxford, sprayed 2 days after inoculation, 4 mg/l, rated after 14 days, efficacy in % of untreated control (90% infection), read-out: Observed activity (% infection). The protocol: as §1, §2, §3, §4, §7
Leaves of potted soybean seedlings of the cultivar “Oxford” were inoculated with a spore suspension of soybean rust (Phakopsora pachyrhizi). […] The extent of the rust fungus development on the leaves was then determined

Series [5] has as its system Botrytis cinerea. The series is described as follows: Activity against gray mold on bell pepper leaves caused by Botrytis cinerea, 1 day protective application. The format is in vivo. The conditions noted are these: bell pepper seedlings, sprayed 1 day before inoculation, 4 mg/l, rated after 5 days, efficacy in % of untreated control (100% infection), read-out: Observed activity (% infection). Here is the method:
as §1, §2, §3, §4, §5, §6, §7
Bell pepper seedlings of the cultivar “Neusiedler Ideal Elite” were, after 2-3 leaves were well developed, sprayed to runoff point with an aqueous suspension in the active compound concentration stated below. […] After 5 days, the extent of the fungal infection on the leaves could be determined visually in %.

On to `Cn1cc(C(=O)Nc2ccccc2-c2cc(Cl)cc(Cl)c2)c(C(F)F)n1` [No. I.4, N-(3′,5′-dichlorobiphenyl-2-yl)-1-methyl-3-difluoromethyl-1H-pyrazole-4-carboxamide], for which the inhibition at 16 µg/mL in series [1] (16 mg/l) stood at 44%. Further, the inhibition at 1 µg/mL in series [2] was found to be 0%; in series [3], 56%.
Turning to `CC1CCN(c2c(-c3c(F)cc(F)cc3F)c(Cl)nc3ncnn23)CC1` [5-chloro-7-(4-methylpiperidin-1-yl)-6-(2,4,6-trifluorophenyl)-[1,2,4]triazolo[1,5-a]pyrimidine], the inhibition at 4 µg/mL in series [4] was 28%.
With `COC(=O)N(OC)c1ccccc1COc1ccn(-c2ccc(Cl)cc2)n1` [pyraclostrobin, methyl N-{2-[1-(4-chlorophenyl)-1H-pyrazol-3-yloxymethyl]phenyl}(N-methoxy)carbamate], in series [5], the inhibition at 4 µg/mL amounted to 0%. In addition, the inhibition at 1 µg/mL in series [3] turned out to be 0%.
As to `COc1ccc(C(=CC(=O)N2CCOCC2)c2ccc(Cl)cc2)cc1OC` [dimethomorph, 3-(4-chlorophenyl)-3-(3,4-dimethoxyphenyl)-1-morpholin-4-yl-propenone], the inhibition at 63 µg/mL in series [1] turned out to be 0%. For the same compound, the inhibition at 4 µg/mL in series [3] was found to be 5%.
Taken in the same sequence, the figures for `COc1cc(C)c(C(=O)c2c(OC)ccc(Br)c2C)c(OC)c1OC` [metrafenone, 3′-bromo-2,3,4,6′-tetramethoxy-2′,6-dimethylbenzophenone] were 0% and 0%.
On to `Cn1cc(C(=O)Nc2ccccc2-c2cc(Cl)cc(Cl)c2)c(C(F)(F)F)n1` [No. I.1, 1-methyl-3-trifluoromethyl-N-(ortho-(3,5-dichlorophenyl)phenyl)-pyrazole-4-carboxamide], for which the melting point is 101 to 105 °C. In addition, in series [5], the inhibition at 4 µg/mL worked out at 0%. Moreover, the inhibition at 1 µg/mL in series [3] was 52%.
Regarding `Fc1ccc([C@]2(Cn3cncn3)O[C@H]2c2ccccc2Cl)cc1` (racemic) [epoxiconazole, (2RS,3SR)-1-[3-(2-chlorophenyl)-2,3-epoxy-2-(4-fluorophenyl)propyl]-1H-1,2,4-triazole], the inhibition at 4 µg/mL in series [5] came to 10%.
